This note sets out measurements from patent US20210221843A1, “EPHA2 AGONISTS AND USES THEREOF” (THE REGENTS OF THE UNIVERSITY OF CALIFORNIA, priority 2018, published 2021).

Entries after “also recorded” stand apart in the source; their conditions may differ. Starred links: 1 amine or outer side, 2 acyl side, 3 side chain; linkers in the order of their positions; H or OH if unused. Non-standard residues stand in square brackets, D forms with d. Residues, ends and D or L forms follow the SMILES beside them. *: point of attachment. Dap(4-FSB) = (S)-2-amino-3-(4-(fluorosulfonyl)benzamido)propanoic acid, O=C(NC[C@H](N[*:1])C(=O)[*:2])c1ccc(S(=O)(=O)F)cc1; 7‑MethoxyBenzofuranoic = N-terminus modified by (7-methoxybenzofuran-2-yl)-methanone, COc1cccc2cc(C(=O)*)oc12; Phenoxyacetyl(3-Cl,4-F) = O=C(COc1ccc(F)c(Cl)c1)*; Dap = NC[C@H](N)C(=O)O

The IC50 is the concentration that gives 50% inhibition.

For one test, the target named is EphA2-LBD (Homo sapiens, UniProt P29317). Nature of the test: DELFIA displacement assay (displacement of biotinylated 123B9 from EphA2-LBD).
Chain of EphA2-LBD (P29317 28-206 limits assumed): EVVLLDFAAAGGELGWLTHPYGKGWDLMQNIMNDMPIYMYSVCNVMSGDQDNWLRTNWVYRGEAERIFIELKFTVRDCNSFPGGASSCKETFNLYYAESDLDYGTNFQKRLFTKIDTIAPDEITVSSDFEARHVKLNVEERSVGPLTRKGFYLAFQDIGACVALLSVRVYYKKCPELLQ
In test [1] the target is T1, EphA2 (Homo sapiens, UniProt P29317). Nature of the test: Covalent gel shift with EphA2. In kind it is biochemical. Particulars: compounds incubated 10:1 for 2 hours at room temperature. How it is done: Covalent adduct formation of EphA2 with 147A5 and 147A6, respectively, were confirmed by covalent gel shift. Compounds were incubated 10:1 for 2 hours at room temperature.
T1 sequence (P29317 24-976): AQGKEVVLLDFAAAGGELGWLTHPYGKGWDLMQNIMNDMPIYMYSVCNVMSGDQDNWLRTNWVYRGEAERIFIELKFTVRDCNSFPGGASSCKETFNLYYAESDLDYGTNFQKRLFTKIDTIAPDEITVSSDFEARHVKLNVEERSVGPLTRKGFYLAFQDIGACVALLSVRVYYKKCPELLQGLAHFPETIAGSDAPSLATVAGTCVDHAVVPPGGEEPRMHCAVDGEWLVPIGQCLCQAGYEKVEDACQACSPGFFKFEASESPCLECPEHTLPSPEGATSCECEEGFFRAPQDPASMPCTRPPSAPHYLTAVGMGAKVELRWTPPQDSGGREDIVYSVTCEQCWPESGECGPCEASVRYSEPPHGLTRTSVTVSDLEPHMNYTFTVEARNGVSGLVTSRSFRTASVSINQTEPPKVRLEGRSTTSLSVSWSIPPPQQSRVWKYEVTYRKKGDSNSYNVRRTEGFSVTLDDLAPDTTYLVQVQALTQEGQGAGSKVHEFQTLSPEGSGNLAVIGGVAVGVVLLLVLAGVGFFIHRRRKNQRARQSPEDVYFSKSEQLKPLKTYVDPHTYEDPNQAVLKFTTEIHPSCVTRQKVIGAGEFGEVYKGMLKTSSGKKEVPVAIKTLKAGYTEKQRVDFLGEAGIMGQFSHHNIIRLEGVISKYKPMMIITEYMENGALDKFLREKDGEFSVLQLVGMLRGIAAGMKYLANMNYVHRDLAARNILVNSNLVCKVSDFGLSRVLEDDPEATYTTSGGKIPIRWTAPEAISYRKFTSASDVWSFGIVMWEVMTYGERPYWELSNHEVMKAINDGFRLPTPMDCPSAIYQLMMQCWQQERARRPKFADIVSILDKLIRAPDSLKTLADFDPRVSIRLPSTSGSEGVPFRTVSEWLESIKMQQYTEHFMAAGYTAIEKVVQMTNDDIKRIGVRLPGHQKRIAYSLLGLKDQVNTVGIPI

Test [2] relates to BxPC3 cells. Kind of test: Time-lapse scratch wound cell-migration assay. In kind it is cell-based. The conditions noted are these: 2.5 μM. The method, then:
Cell-migration assay: Cells were cultured in 96-well ImageLock plates (Sartorius). Next day, wells were scratched using the WoundMaker (Sartorius). Subsequently, cells were washed twice with PBS and treated with the indicated compounds in RPMI-1640 complete media. Subsequently, cells were imaged every 6 h using IncuCyte S3 (Sartorius) and relative wound areas were analyzed using the algorithm of the imager cell migration software module.

For test [3], the target named is T1, EphA2. Nature of the test: Western blot of total EphA2 and pEphA2 S897 in BxPC3 cells. In kind it is cell-based. The arrangement: endogenous in cells; host or cells: BxPC3; PANC-1. Particulars: 3 hours treatment. A general note: Immunoblotting shows a protein as a band on a membrane.
The subject of test [4] is BxPC3 cells. Kind of test: Time-lapse scratch wound cell invasion assay (Matrigel). In kind it is cell-based. The conditions noted are these: scratch wound through Matrigel, 2.5 μM. The method, then: Cell invasion assay: Matrigel (Corning) was diluted in serum-free RPMI-1640 media (1:100), 50 µL of the mixture was added to ImageLock plate and incubated at 37° C. for 2 h. Next, excess media were aspirated and cells in complete media were plated and left overnight in humidified cell culture incubator. The following day, cell culture plate was aspirated, scratched with the WoundMaker, and washed twice with PBS. Subsequently, the plate was coated with a mixture of Matrigel and cold serum-free RPMI-1640 (1:1) and left in the incubator to solidify for 30 min. Finally, 100 µL of 1.5× compound-media mixture was added to the plate at various concentrations. The healing of the scratches was imaged and calculated similar to the migration assay.

Test [5] deals with T1, EphA2. Nature of the test: Western blot of total EphA2 and pEphA2 S897 in PANC-1 cells. In kind it is cell-based. More on the design: endogenous in cells; host or cells: PANC-1.
Test [6] concerns the target T1, EphA2. Kind of test: Immunofluorescence of EphA2 cellular localization in BxPC3 cells. The arrangement: endogenous in cells; host or cells: BxPC3; PANC-1. In kind it is cell-based. The conditions noted are these: 30 min treatment, 1 μM 135H12. The method, then: FIG. 4A-D. Dimeric EphA2 agonists degrade EphA2 receptors in cancer cells. […] BxPC3 cell line was treated with the indicated doses for 3 hours, then cells were lysed and Western blot studies were performed. […] BxPC3 or PANC-1 cells were treated and lysed similar to the previous Western blot. […] EphrinA1-Fc is a clustered natural ligand and used as a positive control. […] Moreover, the receptor band disappeared after 1 hour of treatment. […] Cells were immunostained with EphA2 antibody (light) and nuclei were counterstained with DAPI (dark). […] Images were acquired using confocal Inverted Zeiss 880.
In chamber slides, cells were plated and allowed to adhere overnight in humidified cell culture incubators. The following day, cells were treated with the indicated ligands for 30 min. Subsequently, cells were washed with PBS and fixed with 4% Formaldehyde (Polysciences, Inc.), then blocked and permeabilized with 5% FBS and 0.3% Triton™ X-100 for 1 h. Next, wells were washed and stained with anti-EphA2 antibody, followed by three washes and further incubation with Alexafluor goat anti-mouse 488 secondary antibody (ThermoFisher). Cells were counterstained with DAPI and mounted with Prolong Diamond Antifade (ThermoFisher). Images were acquired with confocal microscope Zeiss 880 Airyscan and processed using Adobe Photoshop CC.

Test [7] deals with T1, EphA2. Kind of test: EphA2 receptor phosphorylation assay in HEK293 cells (immunoprecipitation, anti-phosphotyrosine blot). In kind it is cell-based. More on the design: endogenous in cells; PANC-1. The conditions noted are these: various doses.

The molecule `CC(C)[C@H](NC(=O)[C@H](CC(=O)O)NC(=O)[C@H](CC(=O)O)NC(=O)[C@@H]1CCCN1C(=O)[C@H](Cc1ccc(O)cc1)NC(=O)[C@H](C)NC(=O)[C@H](CN)NC(=O)COc1ccc(F)c(Cl)c1)C(=O)N1CCC[C@H]1C(=O)N[C@@H](Cc1ccccc1)C(=O)N[C@@H](CCCNC(=N)N)C(=O)N1CCC[C@H]1C(N)=O` [135F11] ({Phenoxyacetyl(3-Cl,4-F)}-[Dap]AYPDDVPFRP-NH2) returned an IC50 on EphA2-LBD above 200 µM.

As for “(7-MethoxyBenzofuranoic)LAYPDAVP-Dap(4-FSB)-RP-CONH2 ({7‑MethoxyBenzofuranoic}-LAYPDAVP[Dap(4-FSB)]RP-NH2; SMILES COc1cccc2cc(C(=O)N[C@@H](CC(C)C)C(=O)N[C@@H](C)C(=O)N[C@@H](Cc3ccc(O)cc3)C(=O)N3CCC[C@H]3C(=O)N[C@@H](CC(=O)O)C(=O)N[C@@H](C)C(=O)N[C@H](C(=O)N3CCC[C@H]3C(=O)N[C@@H](CNC(=O)c3ccc(S(=O)(=O)F)cc3)C(=O)N[C@@H](CCCNC(=N)N)C(=O)N3CCC[C@H]3C(N)=O)C(C)C)oc12) [147A5]”, the “covalent adduct formation with EphA2” value with EphA2 [1] is “confirmed”.

For `COc1ccc(C[C@H](NC(=O)[C@H](C)NC(=O)[C@H](CC(C)C)NC(=O)c2oc3c(OC)c(OC)ccc3c2C)C(=O)N2CCC[C@H]2C(=O)N[C@@H](CC(=O)O)C(=O)N[C@@H](C)C(=O)N[C@H](C(=O)N2C[C@H](O)C[C@H]2C(=O)N[C@@H](Cc2ccc(Cl)cc2)C(=O)N[C@@H](CCCNC(=N)N)C(=O)N2CCC[C@H]2C(N)=O)C(C)C)cc1` [135H11, XLA(4MeTyr)PDAV(Hyp)(4ClPhe)RP-CONH2], in the test on BxPC3 cells [2], the “inhibition of cell migration” value was “inhibit cell migration”. Besides, the “degradation of total EphA2 and dephosphorylation of pEphA2 S897” value at EphA2 [3] is “more effective than the monomer 123B9; also recorded: orders of magnitude more effective than 123B9 in causing EphA2 degradation and suppressing oncogenic pSer897-EphA2”; at EphA2 [5], “more effective than the monomer 123B9; also recorded: orders of magnitude more effective than 123B9 in causing EphA2 degradation and suppressing oncogenic pSer897-EphA2”. Moreover, the “inhibition of cell invasion” value in the test with BxPC3 cells [4] is reported as “inhibited cell invasion; also recorded: equally effective in suppressing cell invasion at low micromolar concentration”. The EphA2 cellular localization result on EphA2 [6] is listed as “located at the cell membrane; also recorded: fluorescence localized at the cell membrane”.

As for `CC(C)[C@H](NC(=O)[C@H](CO)NC(=O)[C@H](CC(=O)O)NC(=O)[C@@H]1CCCN1C(=O)[C@H](Cc1ccc(O)cc1)NC(=O)[C@H](C)NC(=O)[C@H](CO)NC(=O)COc1ccc(F)c(Cl)c1)C(=O)N1C[C@H](O)C[C@H]1C(=O)N[C@@H](Cc1ccc(Cl)cc1)C(=O)N[C@@H](CCCNC(=N)N)C(=O)N1CCC[C@H]1C(=O)NCC(=O)NCCCC[C@H](NC(=O)CNC(=O)[C@@H]1CCCN1C(=O)[C@H](CCCNC(=N)N)NC(=O)[C@H](Cc1ccc(Cl)cc1)NC(=O)[C@@H]1C[C@@H](O)CN1C(=O)[C@@H](NC(=O)[C@H](CO)NC(=O)[C@H](CC(=O)O)NC(=O)[C@@H]1CCCN1C(=O)[C@H](Cc1ccc(O)cc1)NC(=O)[C@H](C)NC(=O)[C@H](CO)NC(=O)COc1ccc(F)c(Cl)c1)C(C)C)C(N)=O` [135G4, [(4F,3ClPhOCH2CO)SAYPDSV(HYP)(4ClPhe)RPG]2-K-CONH2], the “degradation of total EphA2 and dephosphorylation of pEphA2 S897” value at EphA2 [3] was “degraded total EphA2 receptor and phosphorylated pEphA2 S897 at nanomolar concentrations; also recorded: remarkably active in inducing receptor degradation and dephosphorylation of Ser897-EphA2 at sub-micromolar concentrations”.

Take “(7-MethoxyBenzofuranoic)LAYPDAVP-Dap(3-FSB)-RP-CONH2 ({7‑MethoxyBenzofuranoic}-LAYPDAVP[Dap(3-FSB)]RP-NH2) [147A6]”: in the test with EphA2 [1], the “covalent adduct formation with EphA2” value was “confirmed”.

On to `CC(C)[C@H](NC(=O)[C@H](CO)NC(=O)[C@H](CC(=O)O)NC(=O)[C@@H]1CCCN1C(=O)[C@H](Cc1ccc(O)cc1)NC(=O)[C@H](C)NC(=O)[C@H](CO)NC(=O)COc1ccc(F)c(Cl)c1)C(=O)N1C[C@H](O)C[C@H]1C(=O)N[C@@H](Cc1ccc(Cl)cc1)C(=O)N[C@@H](CCCNC(=N)N)C(=O)N1CCC[C@H]1C(N)=O` [135G3, (4F,3ClPhOCH2CO)SAYPDSV(Hyp)(4ClPhe)RP-CONH2], for which the “induction of EphA2 receptor phosphorylation” value on EphA2 [7] is on record as “remarkably increased cellular activity in inducing tyrosine receptor phosphorylation compared to YSA”.

B1: ephrinA1-Fc: clustered natural ligand and used as a positive control (protein)
chain: DRHIVFWNSSNPKFREEDYTVHVQLNDYLDIICPHYEDDSVADAAMERYTLYMVEHQEYVACQPQSKDQVRWNCNRPSAKHGPEKLSEKFQRFTPFILGKEFKEGHSYYYISKPIYHQESQCLKLKVTVNGKITHNPQAHVNPQEKRLQADDPEVQVLHSIGYS
modifications: left off: a dimerising Fc or GST
notes: clustered natural ligand and used as a positive control
As to B1, the EphA2 cellular localization result in the test with EphA2 [6] is on record as “punctuated fluorescence was observed in the cytoplasm”.
